According to patent US20260232603A1, “A METHOD OF PREPARING AN AQUEOUS DISPERSION OF NANOPARTICLES” (IQ MEDICAL GMBH, priority 2023, published 2026):
In brackets after ≈: the same amount, converted by molar mass. Read-outs that look alike come from different tables or passages of the source. Each block holds one molecule with its values, some of them ahead of it.

Columns and labels:
[1] = Table 8, cited from earlier work; for pKa: first value where several are printed
[2] = cited from earlier work
[3] = Pharmacokinetics of tacrolimus encapsulated in E100, sublingual cross-over, rats (2022NCM003); format: in vivo, Sprague Dawley rats; conditions: 5 mg per kg
Experimental: The pharmacokinetic profile of three different nanoparticular formulations of Tacrolimus after sublingual administration in five naïve male Sprague Dawley rats with 14 days wash-out interval was evaluated. To eliminate the inter-individual variability, the same animals were administered in an intra-individual three-way cross-over after washout period. The animals were housed in a separate temperature-controlled room (20-24° C.) and maintained in a 12 h light/12 h dark cycle. Food and water were available ad libitum throughout the duration of the study.
Formulations were freshly prepared on the day of application using the procedure described herein and administered freshly after arrival.
Dose (and applied volume of the nanosuspension) was adjusted individually to the body weight of the animal.
Test item formulations were administered sublingual to 5 animals with […] wash-out intervals at a dose of 5 mg per kg body weight. Application procedure and blood sampling was as described before.
Tacrolimus whole blood concentrations were analysed by LC-MS/MS and Cmax, tmax, and AUC were calculated.
Preparation of working solutions for calibration standards and quality controls Individual stock solutions were used for preparation of calibration standards and quality control samples (QCs).
All samples were kept on ice until the addition of the precipitation reagent. […]

[4] = Pharmacokinetics of sirolimus encapsulated in E100, sublingual, rats (2022NCM001); format: in vivo, Sprague Dawley rats; conditions: 5 mg per kg
Experimental: Naïve, adult male Sprague Dawley rats of around 300 g body weight were housed in a separate temperature-controlled room (20-24° C.) and maintained in a 12 h light/12 h dark cycle. Food and water were available ad libitum throughout the duration of the study.
Formulation was freshly prepared on the day of application. It was administered sublingually to each animal at a dose of 5 mg per kg body weight.
For sublingual administration, rats were shortly anaesthetized with isoflurane. Prior to application, the sublingual area was blotted dry with cotton swabs. The appropriate volume of the formulation was applied under the tongue with a pipette. The animals were kept in a sitting position for 5 minutes. After 5 minutes the area under the tongue was blotted dry again to avoid oral administration of the remaining suspension. Then the animals were placed into the cage until recovery.
Blood samples were collected by puncture of the lateral tail vein at the following time points: predose, 15 min, 30 min, 1 h, 2 h, 4 h, 8 h and 24 h post dose. At each of the designated time points 20 μl blood was collected from the tail vein into K3-EDTA capillaries (Minivette POCT, […]). The blood samples were transferred into polypropylene tubes and frozen on dry ice within 1-2 min. of sampling and stored at −20° C. until LC-MS analysis. […]

[5] = Saturation solubility of sirolimus in selected solvents; format: physicochemical; conditions: thermodynamic from solid, room temperature, HPLC of supernatant
Experimental: One task is the production of a highly concentrated dispersion. The prerequisite for this is the use of a solvent for the production of the dispersion in which the active substance has a high solubility. […] Crystalline active ingredient was added to a defined amount of solvent at room temperature while stirring until an insoluble sediment was formed.

[6] = Pharmacokinetics of two sirolimus E100 nanoformulations, sublingual cross-over, rats (2022NCM002); format: in vivo; conditions: two nanoparticular formulations (FLM04_025, FLM02_b230)
Experimental: To eliminate the inter-individual variability, the same animals were administered in an intra-individual two-way cross-over after an appropriate washout period.
Two different approaches were followed in that a surfactant was included either during precipitation (FLM04_025) or after precipitation (FLM02_b230) as shown in FIG. 32.
Formulations were freshly prepared on the day of application using the procedure as described herein.
Test item formulations were administered sublingual to animals with 7 days wash-out intervals at a […] per kg body weight. Application procedure, blood sampling and their as quantification was as described before.

[7] = nanoparticular dispersion based on Eudragit E100, rats

Structure (SMILES): CCCCC(=O)O [Valeric acid]
Water solubility [1]: 40 mg/mL
pKa [1]: 5.01

Structure (SMILES): O=C(O)CC(O)C(=O)O (stereo not drawn) [Malic acid]
Water solubility [1]: 218 mg/mL
pKa [1]: 3.2

Structure (SMILES): CCCCCCCCCCCCCCCCCC(=O)O [Stearic Acid]
pKa [1]: 4.95

Structure (SMILES): CCC(C)n1ncn(-c2ccc(N3CCN(c4ccc(OCC5COC(Cn6cncn6)(c6ccc(Cl)cc6Cl)O5)cc4)CC3)cc2)c1=O (stereo not drawn) [Itraconazole]
Log P [2]: 5.66
Water solubility [2]: 0.0096 mg/mL

Structure (SMILES): CCCCCCCC(=O)O [Octanoic Acid]
pKa [1]: 5.19

Structure (SMILES): CCCCCCCC/C=C\CCCCCCCC(=O)O [Oleic Acid]
Water solubility [1]: 0.0001 mg/mL

detection in blood after sublingual administration [3, 7]: detected in the blood of all rats
time of maximum concentration (t_max) ([3]; nanoparticular dispersion based on Eudragit E100, whole blood, rats): 30 min
Structure (SMILES): C=CC[C@@H]1/C=C(\C)C[C@H](C)C[C@H](OC)[C@H]2O[C@@](O)(C(=O)C(=O)N3CCCC[C@H]3C(=O)O[C@H](/C(C)=C/[C@@H]3CC[C@@H](O)[C@H](OC)C3)[C@H](C)[C@@H](O)CC1=O)[C@H](C)C[C@@H]2OC [Tacrolimus]
Log P [2]: 4.5

time of maximum concentration (t_max) ([4]; 5 min application, nanoparticular dispersion based on Eudragit E100, blood, rats): 30 min
detection in blood after sublingual administration [4, 7]: detected in the blood of all rats
solubility ([5]; acetone, organic solvent or mixture, saturation solubility in Acetone (polar aprotic)): ≥ 200 mg/mL
solubility ([5]; ethanol, organic solvent or mixture, saturation solubility in Ethanol (polar protic)): 179 mg/mL (≈ 196 mM)
solubility ([5]; iso-propanol, organic solvent or mixture, saturation solubility in iso-Propanol (polar protic)): 25 mg/mL (≈ 27.3 mM)
solubility ([5]; methanol, organic solvent or mixture, saturation solubility in Methanol (polar protic)): 246 mg/mL (≈ 269 mM)
solubility ([5]; water, saturation solubility in Water (polar protic)): ~0.001 mg/mL (≈ 0.00109 mM)
detection in blood after sublingual administration [6]: detected in the blood of all rats
Structure (SMILES): CO[C@H]1C[C@@H]2CC[C@@H](C)[C@@](O)(O2)C(=O)C(=O)N2CCCC[C@H]2C(=O)O[C@H]([C@H](C)C[C@@H]2CC[C@@H](O)[C@H](OC)C2)CC(=O)[C@H](C)/C=C(\C)[C@@H](O)[C@@H](OC)C(=O)[C@H](C)C[C@H](C)/C=C/C=C/C=C/1C [sirolimus]
Log P [2]: 4.56
